The results in this text go back to patent US11351151B2, “Compound having anticancer activity and preparation method and application” (3D Medicines (Beijing) Co., Ltd., priority 2016, dated 2022).

What all share (experiment): Cell proliferation assay (Alamar Blue)
Common to all, as to format: cell-based
(In general: Resazurin is reduced to fluorescent resorufin, in cell work by metabolically active cells.)

The subject of one test is AN3CA. The following applies: for IC50: Homo sapiens, AN3-CA, 144 h, AN3CA (endometrial cells), 6 days. How it is done: (§1) 1. Instruments and Materials • Thermo 311 CO2 incubator; Haier biosafety cabinet; Molecular Devices microplate reader; Xiangyi brand L530 desktop low speed centrifuge; Olympus IX51 inverted fluorescence microscope, DMEM, RPMI 1640, MEM, DMEM/F12 1:1 medium, Fetal bovine serum, 0.25% trypsin solution, phosphate buffer (Thermo Fisher Shanghai Co., Ltd.); sigma dimethyl sulfoxide (DMSO), resazurin; 54 commercial tumor cell lines (including 26 liver cancer cell lines). Experimental drugs: compounds 1-12 and active drug Linifanib; chemotherapeutic drug Doxorubicin (HY-15142; Shanghai Qianyuan Biomedical Technology Co., Ltd.).
(§2) 2. Experimental Methods • 2.1 Cultivation of different cell lines • 54 cell lines were cultured in a culture medium containing fetal bovine serum and placed in a 5% CO 2 incubator at 37° C. for incubation. The cells were all grown in an adherent state, and the growth was observed under an inverted microscope, and subculture was performed when the cell confluence rate reached 80%-90%. The proportion and quantity of passage were determined by experimental needs. The ratio of subculture of this cell line was generally 1:2^˜1:3. • 2.2 inhibition effect on the proliferation of different tumor cell lines • Cell test: 54 cell lines in logarithmic growth phase were inoculated in 96-well culture plates at 500^˜1×10^4/well (the optimal seeding density of each cell line was determined in pre-experiment), After incubating at 37° C. for 4 h in a 5% CO2 humidification incubator, added 10 μL of compounds 1-12 or Linifanib to each well, and tested 9 drug concentration gradients for each compound (diluted from the highest concentration of the test by 3.16 times). The solubility of each compound was different at a starting concentration of 30 or 100 μM, respectively. The QC reference compound Doxorubicin was added simultaneously to each cell line test, and the final drug concentrations were 10, 3.16, 1, 0.31, 0.1, 0.03, 0.01, 0.003, and 0.001 μM, respectively. In addition, a positive control group (100% inhibition) and a negative control group (0% inhibition) were set at the same time. The drug group was repeated for 2 wells per concentration, and the positive control group and the negative control group were repeated for 6 wells. After the culture was continued for 6 days in the incubator, AlamarBlue test operation was followed; • AlamarBlue test procedure: Incubated with 10 μL of AlamarBlue reagent per well for 1-4 h, shook for 1-2 min, MD microplate reader EX: 560 nm, EM: 590 nm wavelength to measure fluorescence, recorded the results, calculated the cell inhibition rate of the compound of the invention. Cell inhibition rate (%)=(A0% inhibition−A administration)/(A0% inhibition−A100% inhibition)×100%, and then using the method of nonlinear regression using Graph Pad Prism 5.0 or MATILAB software (usually using four parameters) to graph and obtain a drug dose response curve to obtain an IC50 value of the compound of the present invention acting on a cancer cell line.

The test system of the next test is CCRF-CEM. The following applies: Homo sapiens, 144 h; CCRF-CEM tumor cell line; 6 days. The method, then: as §1, §2
A further test has as its system DLD1. Particulars: Homo sapiens, DLD-1, 144 h; DLD1 tumor cell line; 6 days. How it is done:
as §1, §2

For another test, the system named is DU145. Particulars: Homo sapiens, DU-145, 144 h; DU145 tumor cell line; 6 days. The method, then: as §1, §2
For the next test, the system named is HCCLM3. The following applies: Homo sapiens, 144 h; HCCLM3 tumor cell line; 6 days. How it is done: as §1, §2
In another test the test system is HEPG2. The following applies: Homo sapiens, 144 h; HEPG2 liver cancer cell line; 6 days. How it is done:
as §1, §2

In the next test the test system is HT1080. The following applies: Homo sapiens, HT-1080, 144 h; HT1080 tumor cell line; 6 days. How it is done:
as §1, §2

Another test relates to HUH6. The following applies: Homo sapiens, HuH-6, 144 h; HUH6 liver cancer cell line; 6 days. How it is done:
as §1, §2

In another test the test system is Hep3B2.1-7. The following applies: 144 h; Hep3B2.1-7 liver cancer cell line; 6 days. The method, then: as §1, §2
Another test deals with HuTu80. Particulars: Homo sapiens, 144 h; HuTu80 tumor cell line; 6 days. The method, then: as §1, §2
Another test has as its system JHH2. Particulars: JHH-2, 144 h; JHH2 liver cancer cell line; 6 days. How it is done: as §1, §2
For the next test, the system named is LNCAP-clone-FGC. The following applies: Homo sapiens, 144 h; LNCAP-clone-FGC tumor cell line; 6 days. How it is done:
as §1, §2

The next test deals with Li-7. The following applies: 144 h; Li-7 liver cancer cell line; 6 days. How it is done: as §1, §2
Another test relates to MDA-MB-231. The following applies: Homo sapiens, 144 h; MDA-MB-231 tumor cell line; 6 days. The method, then:
as §1, §2

The test system of another test is MG63. The following applies: Homo sapiens, MG-63, 144 h; MG63 tumor cell line; 6 days. How it is done:
as §1, §2

A further test concerns NCl-H1648. Particulars: 144 h; NCl-H1648 tumor cell line; 6 days. The method, then: as §1, §2
Another test relates to NCl-H1703. The following applies: for IC50: 144 h, NCl-H1703 (lung cancer cells), 6 days. How it is done: as §1, §2
For a further test, the system named is SK-HEP-1. The following applies: Homo sapiens, SK-HEP1, 144 h; SK-HEP-1 liver cancer cell line; 6 days. How it is done: as §1, §2
The next test deals with SNU182. The following applies: Homo sapiens, SNU-182, 144 h; SNU182 liver cancer cell line; 6 days. The method, then: as §1, §2
The test system of another test is SNU398. The following applies: Homo sapiens, SNU-398, 144 h; SNU398 liver cancer cell line; 6 days. How it is done: as §1, §2
A further test has as its system SNU739. Particulars: SNU-739, 144 h; SNU739 liver cancer cell line; 6 days. How it is done:
as §1, §2

Another test deals with SNU761. Particulars: 144 h; SNU761 liver cancer cell line; 6 days. How it is done:
as §1, §2

The subject of a further test is TE-6. The following applies: Homo sapiens, 144 h; TE-6 tumor cell line; 6 days. How it is done: as §1, §2

One may read the IC50 as the concentration at which inhibition is half-maximal. With `Cc1ccc(F)c(NC(=O)Nc2ccc(-c3cccc4c3c(N)nn4C(=O)CCCCCNC(=O)C[C@H](N)C(=O)O)cc2)c1` [Compound 11], the concentration for half-maximal inhibition (IC50) with AN3CA is 20.2 µM; in the test with CCRF-CEM it was 40.7 µM; with DLD1, 88.4 µM; with DU145, 26.4 µM; in the test with HCCLM3 it was 74.3 µM; with HEPG2 it was 11.1 µM. For the same compound, the IC50 in the test with HT1080 was 94.4 µM; with HUH6, 46.4 µM; in the test with Hep3B2.1-7, 50.4 µM; with HuTu80, 23.1 µM; with JHH2 it was 93.5 µM; in the test on LNCAP-clone-FGC, 70.9 µM. The IC50 with Li-7 was 35.1 µM; with MDA-MB-231, 80.4 µM; in the test on MG63, 77 µM; with NCl-H1648, > 100 µM; with NCl-H1703, 0.89 µM; in the test with SK-HEP-1, 55.4 µM. Besides, the half-inhibitory concentration (IC50) in the test on SNU182 is > 100 µM; in the test with SNU398, 79 µM; with SNU739 it was 64 µM; in the test on SNU761, 77 µM; in the test on TE-6 it was > 100 µM.
With `Cc1ccc(F)c(NC(=O)Nc2ccc(-c3cccc4c3c(N)nn4C(=O)CCCCCCCCCCCNC(=O)C[C@H](N)C(=O)N[C@@H](CCC(=O)O)C(=O)O)cc2)c1` [Compound 7], the IC50 is 2.94 µM with AN3CA; 15 µM with CCRF-CEM; 97 µM in the test with DLD1; 17.2 µM in the test with DU145; > 100 µM in the test on HCCLM3; 5.83 µM with HEPG2. For the same compound, the IC50 with HT1080 is > 100 µM; with HUH6, > 100 µM; in the test with Hep3B2.1-7 it was 13 µM; in the test with HuTu80, 21.1 µM; in the test on JHH2 it was > 100 µM; in the test with LNCAP-clone-FGC it was 26.7 µM. Further, the IC50 with Li-7 was 34.5 µM; in the test on MDA-MB-231 it was 32.1 µM; in the test on MG63, 73 µM; with NCl-H1648, > 100 µM; with NCl-H1703, 0.18 µM; in the test on SK-HEP-1, 29.2 µM. The IC50 in the test on SNU182 was > 100 µM; in the test with SNU398 it was 18.1 µM; with SNU739 it was 37.4 µM; in the test on SNU761, > 100 µM; in the test with TE-6, 74.3 µM.
Regarding `Cc1ccc(F)c(NC(=O)Nc2ccc(-c3cccc4c3c(N)nn4C(=O)CCCCCCCCCCCNC(=O)C[C@H](N)C(=O)N[C@@H](CCC(=O)N[C@@H](CCC(=O)N[C@@H](CCC(=O)N[C@@H](CCC(=O)O)C(=O)O)C(=O)O)C(=O)O)C(=O)O)cc2)c1` [Compound 8], the results for the “difference of IC50 value versus Linifanib” value in the test with AN3CA (AN3-CA (endometrial cells)) and with NCl-H1703 (NCI-H1703 (lung cancer cells)) were 16.7 times and 4 times, respectively. In addition, the concentration for half-maximal inhibition (IC50) with AN3CA is 3.14 µM; with CCRF-CEM it was > 100 µM; in the test on DLD1 it was 51.1 µM; in the test with DU145, 20.7 µM; in the test on HCCLM3, > 100 µM; in the test on HEPG2, 21.4 µM. Further, the IC50 is 45.3 µM with HT1080; 28.2 µM in the test with HUH6; 36.2 µM with Hep3B2.1-7; 43.8 µM with HuTu80; > 100 µM in the test on JHH2; > 100 µM in the test with LNCAP-clone-FGC. The 50% inhibitory concentration (IC50) in the test on Li-7 was 39.6 µM; in the test on MDA-MB-231 it was 53.5 µM; in the test on MG63, 37.2 µM; in the test with NCl-H1648 it was > 100 µM; in the test on NCl-H1703, 0.08 µM; in the test with SK-HEP-1 it was > 100 µM. Further, the IC50 in the test on SNU182 is > 100 µM; with SNU398 it was 50.1 µM; in the test on SNU739, 64.9 µM; in the test with SNU761 it was 80.1 µM; in the test with TE-6, > 100 µM.
Consider `Cc1ccc(F)c(NC(=O)Nc2ccc(-c3cccc4c3c(N)nn4C(=O)CCCCCCCCCCCNC(=O)C[C@H](N)C(=O)O)cc2)c1` [Compound 12], for which the IC50 is 2.08 µM in the test with AN3CA; > 30 µM with CCRF-CEM; > 30 µM in the test on DLD1; > 30 µM with DU145; > 30 µM with HCCLM3; > 30 µM in the test with HEPG2. For the same compound, the IC50 with HT1080 was > 30 µM; with HUH6, 10.6 µM; in the test with Hep3B2.1-7 it was > 30 µM; in the test with HuTu80, > 30 µM; in the test on JHH2, > 30 µM; in the test with LNCAP-clone-FGC it was > 30 µM. Also, the IC50 was > 30 µM with Li-7; > 30 µM in the test with MDA-MB-231; > 30 µM with MG63; > 30 µM in the test with NCl-H1648; 0.05 µM in the test on NCl-H1703; > 30 µM with SK-HEP-1. For the same compound, the IC50 in the test with SNU182 is 19.5 µM; in the test on SNU398 it was > 30 µM; with SNU739, > 30 µM; with SNU761 it was > 30 µM; in the test on TE-6 it was > 30 µM.
Take `Cc1ccc(F)c(NC(=O)Nc2ccc(-c3cccc4c3c(N)nn4C(=O)CCCCCNC(=O)C[C@H](N)C(=O)N[C@@H](CCC(=O)N[C@@H](CCC(=O)N[C@@H](CCC(=O)N[C@@H](CCC(=O)O)C(=O)O)C(=O)O)C(=O)O)C(=O)O)cc2)c1` [Compound 5]: the IC50 in the test with AN3CA is 45.6 µM; with CCRF-CEM, 70.3 µM; in the test with DLD1, > 100 µM; in the test on DU145, 55.4 µM; in the test on HCCLM3, > 100 µM; in the test with HEPG2 it was 30.8 µM. Also, the IC50 is > 100 µM in the test on HT1080; 72.2 µM in the test on HUH6; 76.5 µM in the test on Hep3B2.1-7; 48.4 µM in the test on HuTu80; > 100 µM with JHH2; > 100 µM with LNCAP-clone-FGC. Further, the IC50 in the test on Li-7 is 59.1 µM; in the test with MDA-MB-231 it was > 100 µM; in the test with MG63, > 100 µM; in the test on NCl-H1648, > 100 µM; in the test with NCl-H1703, 3.43 µM; in the test on SK-HEP-1 it was 85.1 µM. Besides, the concentration for half-maximal inhibition (IC50) in the test on SNU182, with SNU398, in the test on SNU739, in the test on SNU761 and with TE-6 was > 100 µM throughout.
